From patent US20250340552A1, “COMPOUNDS, COMPOSITIONS AND METHODS OF TREATING DISORDERS” (HOTSPOT THERAPEUTICS, INC., priority 2022, published 2025)
Read-outs that look alike come from different tables or passages of the source. Blank lines part the entries; values can stand above or below the compound they belong to.

Target: T1, Cbl-B (Homo sapiens, UniProt Q13191)
T1 construct: MSD-Based Assay for Degradation of Cbl-B in THP-1 Cells; endogenous in cells; host or cells: THP-1 (title) / Jurkat (protocol text)
Assay: MSD-based assay for degradation of Cbl-B in THP-1 cells
Assay type: cell-based
Experimental: MSD-Based Assay for Degradation of Cbl-B in THP-1 Cells
Assay plates were then shaken at 600 rpm for 5 minutes, followed by incubation for 24 hours in the 37° C. TC incubator. […] Cell debris was then spun down at maximum speed (about 3200 g) for 30 min and lysates frozen in the −80° C. fridge. Meanwhile, MSD plates (L15XA-3) were coated overnight at 4° C. with 1 ug/mL capture antibody (Anti-Cbl-B antibody, 246C5a and Mouse mAB, ab54362). […] Blocking buffer was 3% Blocker A (MSD, R93BA-4) in TBST. Plates were washed 3× with 150 ul/well of 1×TBST and sample lysates (70 ul/well) then added, followed by shaking for 1 hr at RT, 600 rpm. […] Plates were again washed 3× with 150 ul/well of 1×TBST, followed by addition of Secondary Detection antibody, SULFO-TAG anti-species antibody (Anti Rabbit Antibody (R32AB-5) MSD, R32AB-1) at a final concentration of 1 ug/ml and 25 uL/well, followed by shaking for 1 hr at RT, 600 rpm. Plates were again washed 3× with 150 ul/well of 1×TBST, followed by addition of 1×MSD reading buffer (MSD, R92TC-2), 150 ul/well, diluted from 4× with water.
Compound Dmax were binned into A through D as follows: A indicates >70%, B indicates 50-70%, C indicates 30-50%, D indicates <30%.

[1] = Cbl-B degradation, Jurkat cells seeded (heading: THP-1 cells), 24 hours incubation, MSD readout
[2] = Cbl-B degradation, Jurkat cells seeded (heading: THP-1 cells), 24 hours incubation, MSD readout, read-out: Dmax

T1 sequence (Q13191 whole entry): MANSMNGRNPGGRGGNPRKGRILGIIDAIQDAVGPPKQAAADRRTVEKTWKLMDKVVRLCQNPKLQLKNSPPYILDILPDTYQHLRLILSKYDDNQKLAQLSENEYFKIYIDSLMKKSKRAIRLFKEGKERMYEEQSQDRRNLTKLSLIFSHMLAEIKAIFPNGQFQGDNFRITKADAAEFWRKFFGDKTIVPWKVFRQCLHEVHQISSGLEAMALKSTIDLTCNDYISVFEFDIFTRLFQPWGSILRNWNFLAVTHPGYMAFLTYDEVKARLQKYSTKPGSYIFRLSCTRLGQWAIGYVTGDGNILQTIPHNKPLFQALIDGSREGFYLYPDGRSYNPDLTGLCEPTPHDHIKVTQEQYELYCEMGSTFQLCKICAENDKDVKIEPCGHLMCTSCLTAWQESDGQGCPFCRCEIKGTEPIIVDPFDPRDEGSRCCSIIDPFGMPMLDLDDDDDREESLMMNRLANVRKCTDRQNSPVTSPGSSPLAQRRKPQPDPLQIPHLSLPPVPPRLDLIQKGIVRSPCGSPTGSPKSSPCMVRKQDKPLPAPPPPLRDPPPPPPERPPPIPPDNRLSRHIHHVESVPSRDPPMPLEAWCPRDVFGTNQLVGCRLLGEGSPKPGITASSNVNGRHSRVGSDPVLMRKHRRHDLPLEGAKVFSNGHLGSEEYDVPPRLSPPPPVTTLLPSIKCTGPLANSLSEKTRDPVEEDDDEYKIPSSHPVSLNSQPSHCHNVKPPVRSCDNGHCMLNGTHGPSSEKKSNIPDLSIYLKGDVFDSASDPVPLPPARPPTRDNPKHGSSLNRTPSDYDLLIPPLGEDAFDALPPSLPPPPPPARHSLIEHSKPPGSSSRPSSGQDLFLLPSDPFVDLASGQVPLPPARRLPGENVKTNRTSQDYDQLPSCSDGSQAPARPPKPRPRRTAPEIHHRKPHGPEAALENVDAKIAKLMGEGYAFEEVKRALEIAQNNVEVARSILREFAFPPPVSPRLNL

SMILES: Cn1cnnc1[C@@H](c1cccc(-n2cc3c(C(F)(F)F)cc(CN4CCC(OCCOCc5ccc(COCCNc6cccc7c6C(=O)N(C6CCC(=O)NC6=O)C7=O)cc5)CC4)cn3c2=O)c1)C1CCC1 (single isomer, unassigned) [Compound 5]
DC50 [1]: > 10000 nM | Dmax [2]: < 30%

SMILES: Cn1cnnc1[C@H](c1cccc(-n2cc3c(C(F)(F)F)cc(CN4CCC(OCCOCc5ccc(COCCNc6cccc7c6C(=O)N(C6CCC(=O)NC6=O)C7=O)cc5)CC4)cn3c2=O)c1)C1CCC1 (single isomer, unassigned) [Compound 6]
DC50 [1]: 30 to 300 nM | Dmax [2]: 50 to 70%

SMILES: Cn1cnnc1[C@@H](c1cccc(-n2cc3c(C(F)(F)F)cc(CN4CCC(N5CCN(c6ccc7c(c6)CN([C@@H]6CCC(=O)NC6=O)C7=O)CC5)CC4)cn3c2=O)c1)C1CCC1 (single isomer, unassigned) [Compound 40]
DC50 [1]: 1000 to 10000 nM | Dmax (THP-1): < 30%

SMILES: Cn1cnnc1[C@@H](c1cccc(-n2cc3c(C(F)(F)F)cc(CN4CCC(N5CCN(c6ccc7c(c6)CN([C@H]6CCC(=O)NC6=O)C7=O)CC5)CC4)cn3c2=O)c1)C1CCC1 (single isomer, unassigned) [Compound 41]
DC50 [1]: 1000 to 10000 nM | Dmax [2]: < 30%

SMILES: Cn1cnnc1CC1(c2cccc(-n3cc4c(C(F)(F)F)cc(CN5CCC(OCCN6CCC(CN7CCN(c8ccc9c(c8)CN([C@@H]8CCC(=O)NC8=O)C9=O)CC7)CC6)CC5)cn4c3=O)c2)COC1 (single isomer, unassigned) [Compound 47]
DC50 [1]: 300 to 1000 nM | Dmax [2]: 50 to 70%

SMILES: Cn1cnnc1CC1(c2cccc(-n3cc4c(C(F)(F)F)cc(CN5CCC[C@@H](OCCN6CCC(CN7CCN(c8ccc9c(c8)CN([C@@H]8CCC(=O)NC8=O)C9=O)CC7)CC6)C5)cn4c3=O)c2)COC1 (single isomer, unassigned) [Compound 49]
DC50 [1]: 300 to 1000 nM | Dmax [2]: 50 to 70%

SMILES: Cn1cnnc1CC1(c2cccc(-n3cc4c(C(F)(F)F)cc(CN5CCC[C@@H](OCCN6CCC(CN7CCN(c8ccc9c(c8)CN([C@H]8CCC(=O)NC8=O)C9=O)CC7)CC6)C5)cn4c3=O)c2)COC1 (single isomer, unassigned) [Compound 50]
DC50 [1]: 30 to 300 nM | Dmax [2]: > 70%

SMILES: Cn1cnnc1CC1(c2cccc(-n3cc4c(C(F)(F)F)cc(CN5CCC[C@H](OCCN6CCC(CN7CCN(c8ccc9c(c8)CN([C@H]8CCC(=O)NC8=O)C9=O)CC7)CC6)C5)cn4c3=O)c2)COC1 (single isomer, unassigned) [Compound 52]
DC50 [1]: 30 to 300 nM | Dmax [2]: > 70%

SMILES: Cn1cnnc1[C@@H](c1cccc(-n2cc3c(C(F)(F)F)cc(CN4CCC[C@@H](OCCN5CCC(CN6CCN(c7ccc8c(c7)CN([C@@H]7CCC(=O)NC7=O)C8=O)CC6)CC5)C4)cn3c2=O)c1)C1CCC1 (single isomer, unassigned) [Compound 53]
DC50 [1]: 1000 to 10000 nM | Dmax (THP-1): 50 to 70%

SMILES: Cn1cnnc1CC1(c2cccc(-n3cc4c(C(F)(F)F)cc(CN5CCN(CCN6CCC(CN7CCN(c8ccc9c(c8)CN([C@@H]8CCC(=O)NC8=O)C9=O)CC7)CC6)CC5)cn4c3=O)c2)COC1 (single isomer, unassigned) [Compound 61]
DC50 [1]: 30 to 300 nM | Dmax (THP-1): 50 to 70%

SMILES: Cn1cnnc1CC1(c2cccc(-n3cc4c(C(F)(F)F)cc(CN5CCC(OCCCN6CCN(c7ccc8c(c7)CN([C@@H]7CCC(=O)NC7=O)C8=O)CC6)CC5)cn4c3=O)c2)COC1 (single isomer, unassigned) [Compound 67]
DC50 [1]: > 10000 nM | Dmax (THP-1): < 30%

SMILES: Cn1cnnc1CC1(c2cccc(-n3cc4c(C(F)(F)F)cc(CN5CCC(OCCCN6CCN(c7ccc8c(c7)CN([C@H]7CCC(=O)NC7=O)C8=O)CC6)CC5)cn4c3=O)c2)COC1 (single isomer, unassigned) [Compound 68]
DC50 [1]: > 10000 nM | Dmax [2]: < 30%

SMILES: Cn1cnnc1[C@@H](c1cccc(-n2cc3c(C(F)(F)F)cc(CN4CCC(OCCCN5CCN(c6ccc7c(c6)CN([C@@H]6CCC(=O)NC6=O)C7=O)CC5)CC4)cn3c2=O)c1)C1CCC1 (single isomer, unassigned) [Compound 71]
DC50 [1]: > 10000 nM | Dmax [2]: < 30%

SMILES: Cn1cnnc1[C@@H](c1cccc(-n2cc3c(C(F)(F)F)cc(CN4CCC(OCCCN5CCN(c6ccc7c(c6)CN([C@H]6CCC(=O)NC6=O)C7=O)CC5)CC4)cn3c2=O)c1)C1CCC1 (single isomer, unassigned) [Compound 72]
DC50 [1]: > 10000 nM | Dmax [2]: 30 to 50%

SMILES: Cn1cnnc1CC1(c2cccc(-n3cc4c(C(F)(F)F)cc(CN5CCC(OCCN6CCN(CC7CCN(c8ccc9c(c8)CN([C@@H]8CCC(=O)NC8=O)C9=O)CC7)CC6)CC5)cn4c3=O)c2)COC1 (single isomer, unassigned) [Compound 77]
DC50 [1]: 300 to 1000 nM | Dmax (THP-1): 30 to 50%

SMILES: Cn1cnnc1[C@@H](c1cccc(-n2cc3c(C(F)(F)F)cc(CN4CCC(OCCN5CCN(CC6CCN(c7ccc8c(c7)CN([C@@H]7CCC(=O)NC7=O)C8=O)CC6)CC5)CC4)cn3c2=O)c1)C1CCC1 (single isomer, unassigned) [Compound 79]
DC50 [1]: 1000 to 10000 nM | Dmax [2]: 30 to 50%

SMILES: Cn1cnnc1[C@@H](c1cccc(-n2cc3c(C(F)(F)F)cc(CN4CCC[C@H](OCc5ccc(CN6CCN(c7ccc8c(c7)CN([C@@H]7CCC(=O)NC7=O)C8=O)CC6)cc5)C4)cn3c2=O)c1)C1CCC1 (single isomer, unassigned) [Compound 81]
DC50 [1]: > 10000 nM

SMILES: Cn1cnnc1CC1(c2cccc(-n3cc4c(C(F)(F)F)cc(CN5CCC[C@H](OCc6ccc(CN7CCN(c8ccc9c(c8)CN([C@@H]8CCC(=O)NC8=O)C9=O)CC7)cc6)C5)cn4c3=O)c2)COC1 (single isomer, unassigned) [Compound 83]
DC50 [1]: > 10000 nM | Dmax [2]: < 30%

SMILES: Cn1cnnc1CC1(c2cccc(-n3cc4c(C(F)(F)F)cc(CN5CCC[C@H](OCc6ccc(CN7CCN(c8ccc9c(c8)CN([C@H]8CCC(=O)NC8=O)C9=O)CC7)cc6)C5)cn4c3=O)c2)COC1 (single isomer, unassigned) [Compound 84]
DC50 [1]: 30 to 300 nM | Dmax [2]: 30 to 50%

SMILES: Cn1cnnc1[C@@H](c1cccc(-n2cc3c(C(F)(F)F)cc(CN4CCC(OCCOCc5ccc(CN6CCN(c7ccc8c(c7)CN([C@@H]7CCC(=O)NC7=O)C8=O)CC6)cc5)CC4)cn3c2=O)c1)C1CCC1 (single isomer, unassigned) [Compound 87]
DC50 [1]: 300 to 1000 nM | Dmax [2]: 30 to 50%

Now from value to compound:

DC50 [1]: 300 to 1000 nM | Dmax [2]: 30 to 50%
SMILES: Cn1cnnc1[C@@H](c1cccc(-n2cc3c(C(F)(F)F)cc(CN4CCC(OCCN5CCC(CN6CCN(c7ccc8c(c7)CN([C@@H]7CCC(=O)NC7=O)C8=O)CC6)CC5)CC4)cn3c2=O)c1)C1CCC1 (single isomer, unassigned) [Compound 48]

DC50 [1]: 300 to 1000 nM | Dmax [2]: 50 to 70%
SMILES: Cn1cnnc1CC1(c2cccc(-n3cc4c(C(F)(F)F)cc(CN5CCC[C@H](OCCN6CCC(CN7CCN(c8ccc9c(c8)CN([C@@H]8CCC(=O)NC8=O)C9=O)CC7)CC6)C5)cn4c3=O)c2)COC1 (single isomer, unassigned) [Compound 51]

DC50 [1]: 30 to 300 nM | Dmax [2]: > 70%
SMILES: Cn1cnnc1[C@@H](c1cccc(-n2cc3c(C(F)(F)F)cc(CN4CCC[C@@H](OCCN5CCC(CN6CCN(c7ccc8c(c7)CN([C@H]7CCC(=O)NC7=O)C8=O)CC6)CC5)C4)cn3c2=O)c1)C1CCC1 (single isomer, unassigned) [Compound 54]

DC50 [1]: < 30 nM | Dmax [2]: > 70%
SMILES: Cn1cnnc1[C@@H](c1cccc(-n2cc3c(C(F)(F)F)cc(CN4CCN(CCN5CCC(CN6CCN(c7ccc8c(c7)CN([C@H]7CCC(=O)NC7=O)C8=O)CC6)CC5)CC4)cn3c2=O)c1)C1CCC1 (single isomer, unassigned) [Compound 64]

DC50 [1]: < 30 nM | Dmax [2]: 50 to 70%
SMILES: Cn1cnnc1CC1(c2cccc(-n3cc4c(C(F)(F)F)cc(CN5CCC(OCCN6CCN(CC7CCN(c8ccc9c(c8)CN([C@H]8CCC(=O)NC8=O)C9=O)CC7)CC6)CC5)cn4c3=O)c2)COC1 (single isomer, unassigned) [Compound 78]

DC50 [1]: < 30 nM | Dmax [2]: 50 to 70%
SMILES: Cn1cnnc1[C@@H](c1cccc(-n2cc3c(C(F)(F)F)cc(CN4CCC(OCCN5CCN(CC6CCN(c7ccc8c(c7)CN([C@H]7CCC(=O)NC7=O)C8=O)CC6)CC5)CC4)cn3c2=O)c1)C1CCC1 (single isomer, unassigned) [Compound 80]

DC50 [1]: > 10000 nM | Dmax [2]: 30 to 50%
SMILES: Cn1cnnc1[C@@H](c1cccc(-n2cc3c(C(F)(F)F)cc(CN4CCC(CN5CCN(c6ccc7c(c6)CN([C@@H]6CCC(=O)NC6=O)C7=O)CC5)CC4)cn3c2=O)c1)C1CCC1 (single isomer, unassigned) [Compound 85]

DC50 [1]: 1000 to 10000 nM | Dmax [2]: 30 to 50%
SMILES: Cn1cnnc1[C@@H](c1cccc(-n2cc3c(C(F)(F)F)cc(CN4CCC(CN5CCN(c6ccc7c(c6)CN([C@H]6CCC(=O)NC6=O)C7=O)CC5)CC4)cn3c2=O)c1)C1CCC1 (single isomer, unassigned) [Compound 86]

DC50 [1]: < 30 nM | Dmax [2]: > 70%
SMILES: Cn1cnnc1[C@@H](c1cccc(-n2cc3c(C(F)(F)F)cc(CN4CCC(OCCOCc5ccc(CN6CCN(c7ccc8c(c7)CN([C@H]7CCC(=O)NC7=O)C8=O)CC6)cc5)CC4)cn3c2=O)c1)C1CCC1 (single isomer, unassigned) [Compound 88]
